# Results as given in patent US20120029048A1, “PHENYLALKYL N-HYDROXYUREAS FOR TREATING LEUKOTRIENE RELATED PATHOLOGIES” (VIA Pharmaceuticals, Inc., priority 2010, published 2012).
# Experiments:
# leukotriene E4 (LTE4) = experiment: Urinary LTE4 by LC/MS/MS, Phase 2 ACS study; assay type: in vivo, human; conditions: all doses (25, 50, 100 mg qd), ACS patients
# Procedure: (§1) In this randomized, placebo-controlled study, 191 patients were randomized 3 weeks after an acute coronary syndrome (ACS) to receive 25, 50, or 100 mg N-[3-[5-[(4-fluorophenyl)methyl]-2-thienyl]-1-methyl-2-propynyl]-N-hydroxyurea or placebo qd for 12 weeks. Baseline assessments were performed at the start of treatment and these baseline results were compared with repeat assessments during various follow-up periods during the treatment study. A subset of 93 patients who had undergone a Multidetector (64 slice coronary) Computerized Tomography (MDCT) examination at baseline continued on study medication for a total of 24 weeks and underwent a repeat scan. Patients received a single daily oral dose of 25 mg, 50 mg, or 100 mg of N-[3-[5-[(4-fluorophenyl)methyl]-2-thienyl]-1-methyl-2-propynyl]-N-hydroxyurea or matching placebo by administering 2 capsules as prepared in Example 3 for 12 weeks or 24 weeks. Blood samples for measurement of ex vivo leukotriene B4 (LTB4) and high sensitivity C reactive protein (hsCRP), and urine samples for measurement of urinary leukotriene E4 (LTE4) levels were collected pre-dose on weeks 2, 6 and 12. Blood samples were assayed for ex vivo LTB4 by enzyme-linked immunosorbent assay, and for hsCRP by an immunoturbidimetric method. Urine samples were assayed for LTE4 using Liquid Chromatography with Tandem Mass Spectrometry (LC/MS/MS).
# [1] = test system: carotid plaques with rupture-prone histological subtypes; experiment: Relative necrotic core thickness in carotid plaques, Phase 2 CEA study; assay type: in vivo, human; conditions: rupture-prone plaque subtypes, 100 mg qd 12 weeks, compared with placebo (p<0.02)
# Procedure: (§2) In this randomized, double blind, placebo-controlled study, 50 patients with significant carotid artery stenosis (60-90%) were treated once daily for 12 weeks with orally administered 100 mg N-[3-[5-[(4-fluorophenyl)methyl]-2-thienyl]-1-methyl-2-propynyl]-N-hydroxyurea or placebo prior to undergoing CEA, at which time endarterectomy tissue (plaque) was collected and stored for subsequent tissue analysis. Baseline assessments are performed at the start of treatment and these baseline results were compared with repeat assessments during various follow-up periods of treatment. The treatment was conducted for twelve weeks at which time these baseline assessments were performed and compared.
# (§3) At the end of 12 weeks treatment with 100 mg of N-[3-[5-[(4-fluorophenyl)methyl]-2-thienyl]-1-methyl-2-propynyl]-N-hydroxyurea, patients underwent CEA, at which time endarterectomy tissue (plaque) was collected, fixed in 10% formalin and paraffin blocks, and stored for subsequent tissue analysis. […] A portion of each of the plaques was also analyzed for inflammatory gene expression after isolation of total RNA and reverse transcription using a TaqMan® High Capacity cDNA assay.
# (§4) LTB4, LTE4 and hsCRP biomarker data were assessed using change from baseline comparisons and an ANCOVA was used to compare the treatment groups where the covariate was the baseline value of the outcome measure. […]
# LTE4 = experiment: Urinary LTE4 by LC/MS/MS, Phase 2 CEA study; assay type: in vivo, human; conditions: 100 mg qd oral 12 weeks, CEA patients, compared with placebo (p<0.01)
# Procedure: (§5) In this randomized, double blind, placebo-controlled study, 50 patients with significant carotid artery stenosis (60-90%) were treated once daily for 12 weeks with orally administered 100 mg N-[3-[5-[(4-fluorophenyl)methyl]-2-thienyl]-1-methyl-2-propynyl]-N-hydroxyurea or placebo prior to undergoing CEA, at which time endarterectomy tissue (plaque) was collected and stored for subsequent tissue analysis. Baseline assessments are performed at the start of treatment and these baseline results were compared with repeat assessments during various follow-up periods of treatment. The treatment was conducted for twelve weeks at which time these baseline assessments were performed and compared. Patients received a total single daily oral dose of 100 mg of N-[3-[5-[(4-fluorophenyl)methyl]-2-thienyl]-1-methyl-2-propynyl]-N-hydroxyurea or matching placebo by administering 2 capsules as prepared in Example 3 for 12 weeks. Blood samples for measurement of ex vivo LTB4 and hsCRP, and urine samples for measurement of urinary LTE4 levels were collected pre-dose on weeks 2, 6 and 12. […] LTB4, LTE4 and hsCRP biomarker data were assessed using change from baseline comparisons and an ANCOVA was used to compare the treatment groups where the covariate was the baseline value of the outcome measure. […]
# hsCRP = hsCRP in blood by immunoturbidimetric method, Phase 2 CEA study; assay type: in vivo, human; conditions: 100 mg qd oral 12 weeks, CEA patients, compared with placebo (p<0.01)
# Procedure: as §5
# [2] = test system: high sensitivity C reactive protein (hsCRP); experiment: hsCRP in blood by immunoturbidimetric method, Phase 2 ACS study; assay type: in vivo, human; conditions: for hsCRP change from baseline, LSMEANS geometric mean (%) / hsCRP change from baseline, Median (25-75): 12 weeks
# Procedure: as §1
# [3] = test system: inflammatory genes IL-6, IL 8, IL-10, MMP9, I-kappa-B, osteopontin; experiment: Inflammatory gene expression in carotid plaques (TaqMan), Phase 2 CEA study; assay type: in vivo, human; conditions: rupture-prone plaque subtypes, 100 mg qd 12 weeks
# Procedure: as §2, §3, §4
# non-calcified plaque = experiment: Serial MDCT coronary plaque imaging, Phase 2 ACS study, 24-week substudy; assay type: in vivo, human; conditions: all three doses, 24 weeks, compared with placebo
# Procedure: In this randomized, placebo-controlled study, 191 patients were randomized 3 weeks after an acute coronary syndrome (ACS) to receive 25, 50, or 100 mg N-[3-[5-[(4-fluorophenyl)methyl]-2-thienyl]-1-methyl-2-propynyl]-N-hydroxyurea or placebo qd for 12 weeks. Baseline assessments were performed at the start of treatment and these baseline results were compared with repeat assessments during various follow-up periods during the treatment study. A subset of 93 patients who had undergone a Multidetector (64 slice coronary) Computerized Tomography (MDCT) examination at baseline continued on study medication for a total of 24 weeks and underwent a repeat scan. For those patients who continued on study medication for a total of 24 weeks, contrast-enhanced CT examination was performed at baseline and after 24 weeks of treatment with a 64-slice scanner (GE LightSpeed VCT; GE Healthcare, USA). Target plaque lesions were defined prospectively as non-calcified plaque with measurable low-density components of <60 HU situated in the proximal or middle portion of either the left main, left anterior ascending, left circumflex or right coronary artery causing at least 20% luminal stenosis. Prior to analysis of results, patients had their MDCT examinations evaluated twice by the same reviewer and also by a second reviewer for evaluation of intraobserver and interobserver variability of measurements.
# LTB4 = experiment: Ex vivo LTB4 in blood by ELISA, Phase 2 CEA study; design: species or system human; conditions: 100 mg qd oral 12 weeks, CEA patients, compared with placebo (p<0.0001)
# Procedure: as §5
# leukotriene B4 (LTB4) = experiment: Ex vivo LTB4 in blood by ELISA, Phase 2 ACS study; design: species or system human; conditions: trough drug levels
# Procedure: as §1
# [4] = 12-week main population, 25 mg qd oral
# [5] = 12-week main population, 50 mg qd oral
# [6] = 12-week main population, 100 mg qd oral
# [7] = 24-week CT substudy population, 25 mg qd oral
# [8] = 24-week CT substudy population, 50 mg qd oral
# [9] = 24-week CT substudy population, 100 mg qd oral
smiles,measurement,setting,value
"CC(C#Cc1ccc(Cc2ccc(F)cc2)s1)N(O)C(N)=O (stereo not shown) [VIA-2291, N-[3-[5-[(4-fluorophenyl)methyl]-2-thienyl]-1-methyl-2-propynyl]-N-hydroxyurea]",effect on urinary leukotriene LTE4,leukotriene E4 (LTE4),significantly reduced
same,reduction of relative necrotic core thickness,[1],21%
same,reduction of urine LTE4,LTE4,65%
same,reduction of hsCRP,hsCRP,2.0 mg/L
same,change in hsCRP within group between 12 and 24 weeks,[2]; 100 mg group (P<0.01),significant reduction
same,"hsCRP at 12 weeks, Median (25-75)","[2]; 12-week main population, 25 mg qd oral (n = 44)","1.1 (0.6, 2.5)"
same,"hsCRP at 12 weeks, Median (25-75)","[2]; 12-week main population, 50 mg qd oral (n = 38)","1.3 (0.4, 2.7)"
same,"hsCRP at 12 weeks, Median (25-75)","[2]; 12-week main population, 100 mg qd oral (n = 38)","0.6 (0.3, 2.5)"
same,"hsCRP change from baseline, LSMEANS geometric mean (%)",[2]; [4],−25.32%
same,"hsCRP change from baseline, Median (25-75)",[2]; [4],"−0.2 (−1.1, 0.4)"
same,"hsCRP change from baseline, LSMEANS geometric mean (%)",[2]; [5],−29.13%
same,"hsCRP change from baseline, Median (25-75)",[2]; [5],"−0.1 (−1.9, 0.1)"
same,"hsCRP change from baseline, LSMEANS geometric mean (%)",[2]; [6],−38.99%
same,"hsCRP change from baseline, Median (25-75)",[2]; [6],"−0.3 (−0.8, 0.1)"
same,"hsCRP 12 weeks change from baseline, LSMEANS geometric mean (%)",[2]; [7],−24.82%
same,"hsCRP 12 weeks change from baseline, Median (25-75)",[2]; [7],"−0.1 (−1.5, 0.8)"
same,"hsCRP 24 weeks change from baseline, LSMEANS geometric mean (%)",[2]; [7],−32.91%
same,"hsCRP 24 weeks change from baseline, Median (25-75)",[2]; [7],"−0.4 (−1.2, 0.3)"
same,"hsCRP at 24 weeks, Median (25-75)",[2]; [7],"1.2 (0.7, 2.1)"
same,"hsCRP at 12 weeks, Median (25-75)","[2]; 24-week CT substudy population, 25 mg qd oral (n = 23)","1.1 (0.6, 2.4)"
same,"hsCRP 12 weeks change from baseline, LSMEANS geometric mean (%)",[2]; [8],−22.71%
same,"hsCRP 12 weeks change from baseline, Median (25-75)",[2]; [8],"−0.1 (−5.0, 0.6)"
same,"hsCRP 24 weeks change from baseline, LSMEANS geometric mean (%)",[2]; [8],−27.05%
same,"hsCRP 24 weeks change from baseline, Median (25-75)",[2]; [8],"−0.2 (−3.7, 0.2)"
same,"hsCRP at 24 weeks, Median (25-75)",[2]; [8],"1.5 (0.6, 2.6)"
same,"hsCRP at 12 weeks, Median (25-75)","[2]; 24-week CT substudy population, 50 mg qd oral (n = 20)","1.7 (0.4, 4.3)"
same,"hsCRP 12 weeks change from baseline, LSMEANS geometric mean (%)",[2]; [9],−39.05%
same,"hsCRP 12 weeks change from baseline, Median (25-75)",[2]; [9],"−0.3 (−2.4, 0.1)"
same,"hsCRP 24 weeks change from baseline, LSMEANS geometric mean (%)",[2]; [9],−67.16%
same,"hsCRP 24 weeks change from baseline, Median (25-75)",[2]; [9],"−0.4 (−3.9, −0.2)"
same,"hsCRP at 24 weeks, Median (25-75)",[2]; [9],"0.3 (0.2, 0.9)"
same,"hsCRP at 12 weeks, Median (25-75)","[2]; 24-week CT substudy population, 100 mg qd oral (n = 18)","0.6 (0.4, 2.0)"
same,decrease in hsCRP,"[2]; 100-mg group at 24 weeks, compared with placebo (P=0.0002)",67%
same,"expression of inflammatory genes IL-6, IL 8, IL-10, MMP9, I-kappa-B, osteopontin",[3],reduction in expression
same,effect on new plaque lesions in serial MDCT images,non-calcified plaque,reduced
same,effect on non-calcified plaque volume in serial MDCT images,non-calcified plaque,reduced
same,reduction of ex vivo LTB4,LTB4,approximately 90%
same,patients with approximately 80% inhibition of ex vivo LTB4,leukotriene B4 (LTB4); 100-mg group,> 90 % of patients
same,inhibition of ex vivo LTB4,"leukotriene B4 (LTB4); 100-mg group, ACS patients",approximately 80%
same,effect on ex vivo leukotriene LTB4,"leukotriene B4 (LTB4); all doses (25, 50, 100 mg qd), P<0.0001, dose-dependent",significantly reduced
